This note sets out measurements from ChEMBL document CHEMBL1201862, “PubChem BioAssay data set” (2004).

Molecules are shown by their SMILES. Calls of active or inactive are those of the source.

In series [1] the target is DNA dC->dU-editing enzyme APOBEC-3A (Homo sapiens, UniProt P31941). Put plainly: Dose Response confirmation of small molecule APOBEC3A DNA Deaminase Inhibitors via a fluorescence-based single-stranded DNA deaminase assay. [Related pubchem assays (depositor defined):AID493011, AID493024]. In kind it is functional.
Sequence of DNA dC->dU-editing enzyme APOBEC-3A (P31941 whole entry): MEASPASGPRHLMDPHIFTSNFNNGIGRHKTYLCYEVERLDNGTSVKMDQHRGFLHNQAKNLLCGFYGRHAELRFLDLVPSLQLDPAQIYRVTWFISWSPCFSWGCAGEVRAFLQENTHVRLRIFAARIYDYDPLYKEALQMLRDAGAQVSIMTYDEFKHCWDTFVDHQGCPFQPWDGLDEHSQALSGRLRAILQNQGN
In series [2] the target is DNA dC->dU-editing enzyme APOBEC-3G (Homo sapiens, UniProt Q9HC16). It is filed as functional.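 Further: Dose-response counterscreen measuring inhibition of APOBEC3G DNA deaminase activity, run while confirming APOBEC3A inhibitors.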
Sequence of DNA dC->dU-editing enzyme APOBEC-3G (Q9HC16 whole entry): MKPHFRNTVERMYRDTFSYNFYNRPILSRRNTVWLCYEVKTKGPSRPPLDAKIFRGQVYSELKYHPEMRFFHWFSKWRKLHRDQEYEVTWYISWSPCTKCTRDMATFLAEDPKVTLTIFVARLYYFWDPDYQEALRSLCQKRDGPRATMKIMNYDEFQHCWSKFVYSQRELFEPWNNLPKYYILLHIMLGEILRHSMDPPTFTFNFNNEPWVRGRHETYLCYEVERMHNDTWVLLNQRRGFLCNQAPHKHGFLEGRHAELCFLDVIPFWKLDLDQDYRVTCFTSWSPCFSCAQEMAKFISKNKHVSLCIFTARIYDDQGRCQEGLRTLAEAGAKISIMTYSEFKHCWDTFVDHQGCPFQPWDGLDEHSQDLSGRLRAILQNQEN
Another series concerns the target T1, Cytochrome P450 1A2 (Homo sapiens, UniProt P05177).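 Further: PubChem cytochrome P450 panel assay, CYP1A2 panel member.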
T1 sequence (P05177 whole entry): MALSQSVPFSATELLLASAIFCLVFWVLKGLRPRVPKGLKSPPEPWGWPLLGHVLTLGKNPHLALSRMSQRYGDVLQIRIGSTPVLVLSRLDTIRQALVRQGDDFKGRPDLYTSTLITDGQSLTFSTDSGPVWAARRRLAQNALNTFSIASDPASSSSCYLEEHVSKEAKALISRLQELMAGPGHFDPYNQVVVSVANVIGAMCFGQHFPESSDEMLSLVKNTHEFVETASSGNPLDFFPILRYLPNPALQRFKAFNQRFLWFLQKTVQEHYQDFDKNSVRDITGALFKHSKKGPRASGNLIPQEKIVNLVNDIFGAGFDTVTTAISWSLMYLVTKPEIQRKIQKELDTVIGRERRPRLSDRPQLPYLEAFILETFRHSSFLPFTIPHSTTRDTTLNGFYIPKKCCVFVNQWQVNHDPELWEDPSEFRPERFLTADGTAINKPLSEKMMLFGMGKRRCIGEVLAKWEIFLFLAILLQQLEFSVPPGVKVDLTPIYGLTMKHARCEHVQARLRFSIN

Another series has as its target Cytochrome P450 2C9 (Homo sapiens, UniProt P11712).
A further series relates to H9c2. Put plainly: cells. It is filed as functional, cell-based. The conditions noted are these: Rattus norvegicus, H9c2, Myocardium.
In the next series the test system is Vero. Put plainly: cells. To be noted: Chlorocebus sabaeus. In kind it is functional.
Series [3] in a line: intracellular Trypanosoma cruzi inhibitors in host cells – cell-based, plate reader, cherry-pick samples, set 3, dose response (AID 651818).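 Further: compounds incubated with infected cells for about four days.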 It is filed as functional.
Series [4] addresses T2, Heat shock factor protein 1 (Mus musculus, UniProt P38532).
T2 sequence (P38532 whole entry): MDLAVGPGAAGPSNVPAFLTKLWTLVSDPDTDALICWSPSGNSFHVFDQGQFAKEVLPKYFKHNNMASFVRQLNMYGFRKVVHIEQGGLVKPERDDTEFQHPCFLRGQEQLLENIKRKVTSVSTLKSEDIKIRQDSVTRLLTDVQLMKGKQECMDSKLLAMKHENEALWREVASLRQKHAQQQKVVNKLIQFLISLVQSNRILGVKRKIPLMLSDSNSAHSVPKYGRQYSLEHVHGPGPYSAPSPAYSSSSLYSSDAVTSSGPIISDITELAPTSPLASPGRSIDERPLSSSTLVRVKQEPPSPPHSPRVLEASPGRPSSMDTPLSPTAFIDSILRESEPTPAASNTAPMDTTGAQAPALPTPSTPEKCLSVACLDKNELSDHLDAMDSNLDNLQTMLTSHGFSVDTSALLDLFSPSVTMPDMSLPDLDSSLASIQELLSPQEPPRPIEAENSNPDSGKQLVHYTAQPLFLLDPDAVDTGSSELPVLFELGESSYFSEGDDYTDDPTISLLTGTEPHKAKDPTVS
Put plainly: HSF1 potentiators in luciferase reporter cells, confirmation, cell-based, NIH3T3, luminescence, dose retest (AID 435004).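 Further: stress induced by proteasome inhibitor MG132 added 30 min after compound; luciferase reporter driven by HSF1 response element in NIH3T3 cells; actives raise luminescence as potentiators of the MG132 stress response.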 It is filed as functional. (In general: Reporter assays use an easily measured gene product as a stand-in for the process of interest.)

In a further series the target is Cytochrome P450 2C19 (Homo sapiens, UniProt P33261). Put plainly: Cytochrome panel assay with activity outcomes. Panel member name: p450-cyp2c19 Compounds with AC50 equal or less than 10 uM are considered active. It is filed as functional.
Sequence of Cytochrome P450 2C19 (P33261 whole entry): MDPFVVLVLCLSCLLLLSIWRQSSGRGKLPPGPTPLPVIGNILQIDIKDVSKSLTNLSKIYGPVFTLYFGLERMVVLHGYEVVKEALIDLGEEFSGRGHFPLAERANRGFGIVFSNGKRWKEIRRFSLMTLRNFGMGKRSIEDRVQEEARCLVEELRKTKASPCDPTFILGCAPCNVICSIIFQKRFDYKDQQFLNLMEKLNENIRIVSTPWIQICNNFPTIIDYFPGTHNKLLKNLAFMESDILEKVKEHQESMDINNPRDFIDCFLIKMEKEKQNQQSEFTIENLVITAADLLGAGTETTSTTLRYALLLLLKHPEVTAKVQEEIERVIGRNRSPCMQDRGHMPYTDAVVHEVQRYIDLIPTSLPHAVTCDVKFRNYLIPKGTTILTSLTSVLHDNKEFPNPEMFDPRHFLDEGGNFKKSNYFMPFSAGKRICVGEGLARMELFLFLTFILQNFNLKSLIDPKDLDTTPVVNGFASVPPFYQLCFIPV
For another series, the target named is Cytochrome P450 3A4 (Homo sapiens, UniProt P08684).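 Further: CYP3A4 tested as one member of a cytochrome P450 panel screen.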
Sequence of Cytochrome P450 3A4 (P08684 whole entry): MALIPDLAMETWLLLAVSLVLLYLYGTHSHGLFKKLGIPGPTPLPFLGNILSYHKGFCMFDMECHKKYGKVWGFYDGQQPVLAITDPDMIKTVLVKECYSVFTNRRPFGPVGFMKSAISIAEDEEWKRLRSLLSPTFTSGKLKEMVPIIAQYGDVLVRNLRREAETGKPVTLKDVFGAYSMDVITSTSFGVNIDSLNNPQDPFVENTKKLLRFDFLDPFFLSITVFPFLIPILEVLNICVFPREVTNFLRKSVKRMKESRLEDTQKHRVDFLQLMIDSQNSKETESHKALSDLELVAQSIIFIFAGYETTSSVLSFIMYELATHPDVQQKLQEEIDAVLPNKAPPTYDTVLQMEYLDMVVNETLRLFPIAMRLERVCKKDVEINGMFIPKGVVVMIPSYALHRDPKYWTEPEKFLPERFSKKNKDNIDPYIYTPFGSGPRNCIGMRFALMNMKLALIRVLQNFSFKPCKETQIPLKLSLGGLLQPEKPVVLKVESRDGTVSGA

Sequence of Cytochrome P450 2C9 (P11712 whole entry): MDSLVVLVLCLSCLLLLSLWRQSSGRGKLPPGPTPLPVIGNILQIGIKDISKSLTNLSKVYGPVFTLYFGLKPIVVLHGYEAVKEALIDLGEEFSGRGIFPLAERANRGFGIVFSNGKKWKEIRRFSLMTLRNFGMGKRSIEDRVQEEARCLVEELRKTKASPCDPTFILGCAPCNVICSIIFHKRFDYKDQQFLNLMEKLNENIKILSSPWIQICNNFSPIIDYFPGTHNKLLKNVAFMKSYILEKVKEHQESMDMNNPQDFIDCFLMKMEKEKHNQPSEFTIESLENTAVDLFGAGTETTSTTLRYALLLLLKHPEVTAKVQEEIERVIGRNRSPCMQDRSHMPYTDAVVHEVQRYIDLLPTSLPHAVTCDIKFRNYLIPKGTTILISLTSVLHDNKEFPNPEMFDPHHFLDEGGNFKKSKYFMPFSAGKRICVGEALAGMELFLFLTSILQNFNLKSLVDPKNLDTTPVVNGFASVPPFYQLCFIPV

As usually defined, the IC50 is the concentration that inhibits the measured activity by half. In the case of `CC(C)C(NC(=O)c1ccc2c(c1)OCO2)C(=O)N/N=C\c1ccco1` (stereo not drawn), the IC50 in [1] was > 100 µM (inactive); in series [2], 15.9 µM (active). As usually defined, the AC50 is the concentration at which the activity in the assay is half-maximal. On to `COc1ccc(Br)cc1/C=C/C(=O)Nc1c(C)cccc1C`, for which the AC50 on Cytochrome P450 1A2 is 22.4 µM (inconclusive); on Cytochrome P450 2C9, “inconclusive”. Broadly, the CC50 is the concentration that lowers cell viability or growth by half. Take `COCCN1Cc2cccc(C(=O)Nc3cccc(-c4nc5ccccc5[nH]4)c3)c2C1=O`: the IC50 in the series with H9c2 is > 79 µM (inactive). The CC50 in the series with Vero is > 25 µM (active).

Regarding `COc1cc(Nc2cccc[n+]2C)cc(OC)c1OC`, the concentration for half-maximal inhibition (IC50) in series [1] is 3.48 µM (active); in [2], 2.85 µM (active). Consider `C[C@@H]1CN([C@H](C)CO)C(=O)Cc2cc(NC(=O)Nc3ccc4c(c3)OCO4)ccc2O[C@H]1CN(C)Cc1ccc(Oc2ccccc2)cc1`, for which, in series [3], the AC50 is 3.08 µM (active). In general, EC50 refers to the midpoint of the concentration-response curve. For `Cc1cccc(C)c1OCC(=O)NCc1nnc(SCC(=O)NC2CCCCC2C)n1C` (stereo not drawn), the IC50 is 2.78 µM (active) in series [1] and 6.2 µM (active) in series [2]. The EC50 in series [4] is > 260 µM (inactive). Consider `CNc1ccnc(-c2c(C)noc2C)n1`, for which the half-maximal activity concentration (AC50) entry on Cytochrome P450 2C19 was “inconclusive”; on Cytochrome P450 3A4, 39.8 µM (inconclusive); on Cytochrome P450 2C9, “inconclusive”. In the case of `CCN(CC)S(=O)(=O)c1cc(C(=O)OC)ccc1Cl`, the half-maximal activity concentration (AC50) result at Cytochrome P450 2C9 was “inconclusive”. Consider `O=C(NCCOc1ccccc1)c1nc[nH]n1`, for which the IC50 in [1] is 6.18 µM (active); in series [2], 18.7 µM (active). As for `CCOC(=O)c1c(NC(=O)CSc2c[nH]c3ccccc23)sc2c1CCCC2`, the CC50 in the series on Vero is > 25 µM (active). In the case of `CCN1C(NCCCCO)=N[C@@H](c2cccc(C(F)(F)F)c2)C(C(=O)OC)=C1C`, the IC50 was 2.59 µM (active) in [1] and 2.44 µM (active) in series [2].

As to `C[C@H]1CN([C@@H](C)CO)C(=O)c2cc(NC(=O)Nc3ccc(F)cc3)ccc2O[C@H]1CN(C)Cc1ccc(-c2ccccc2)cc1`, the AC50 in [3] was 3.74 µM (active). Turning to `CC[C@]12C=CCN3CCC4(c5cc(Br)c(OC)cc5N(C)C4[C@@](O)(C(=O)OC)[C@@H]1OC(C)=O)C32` (stereo partly drawn), the half-inhibitory concentration (IC50) in series [1] is 2.14 µM (active); in series [2], 1.81 µM (active). For `C[C@H](CO)N1C[C@H](C)[C@H](CN(C)Cc2ccc(Cl)c(Cl)c2)Oc2c(NS(C)(=O)=O)cccc2C1=O`, the AC50 in series [3] is 17.3 µM (active). As for `Cc1[nH]c(=O)c(C(=O)/C=C/c2ccccc2F)c2c1CCCC2`, the AC50 entry at Cytochrome P450 2C9 is recorded as “inconclusive”. Regarding `N#C/C(=C\c1c[nH]nc1-c1ccccc1)C(=O)NC1CCCCCC1`, the AC50 result at Cytochrome P450 2C9 is listed as “inconclusive”.

Consider `O=C1OCc2cccc3cccc1c23`, for which the values for the AC50 at Cytochrome P450 2C19 (read-out: AC50) and on Cytochrome P450 2C9 were 39.8 µM (inconclusive) and “inconclusive”, respectively. For `COc1ccc(S(=O)(=O)Nc2ccc3c(c2)CC(=O)N([C@H](C)CO)C[C@@H](C)[C@@H](CN(C)Cc2ccc(Oc4ccccc4)cc2)O3)cc1`, the AC50 in series [3] was 2.26 µM (active). Same read-out and setting: the same measure for `C[C@H]1CN([C@@H](C)CO)C(=O)c2cccc(N(C)C)c2O[C@H]1CN(C)Cc1ccc(C(=O)Nc2ccccc2N)cc1`: 4.84 µM (active). On to `C=CCN1C(=O)/C(=C/c2ccc3c(c2)CCCN3CCC)C(=O)NC1=S`, for which the CC50 in the series with Vero is 18.3 µM (active). Still for that read-out and setting: the same measure for `C=CC[C@@H](CC(=O)N(CCO)Cc1ccccc1)C(=O)N[C@@H](COC(=O)[C@@H](CC=C)Cc1ccc(F)cc1)Cc1c[nH]c2ccccc12`: 18 µM (active). Turning to `C[C@H](CO)N1C[C@H](C)[C@H](CN(C)Cc2ccc(C(F)(F)F)cc2)Oc2ccc(NC(=O)Cc3cn(C)c4ccccc34)cc2C1=O`, the AC50 in series [3] is 4.35 µM (active). `CC[N+](C)(CC)CC(=O)OCC1C(C)C=C(C)CC1C` (stereo not drawn): the IC50 was 1.31 µM (active) in [1] and 2.04 µM (active) in series [2]. For the compound `COC(=O)c1cccc(NC(=O)/C=C/c2cccc([N+](=O)[O-])c2)c1`, the results for the AC50 on Cytochrome P450 2C19 (read-out: AC50), at Cytochrome P450 1A2 and at Cytochrome P450 2C9 were 5.01 µM (inconclusive), 2.24 µM (inconclusive) and “inconclusive”, respectively. Turning to `C[C@H](CO)N1C[C@H](C)[C@H](CN(C)S(=O)(=O)c2ccc(Cl)cc2)Oc2c(NC(=O)Nc3ccc(C(F)(F)F)cc3)cccc2C1=O`, in series [3], the AC50 was 4.44 µM (active). Take `CN1CCC(N(C)S(=O)(=O)c2ccc(NC(=O)c3ccc(S(=O)(=O)N(C)C)cc3)cc2)CC1`: the IC50 is 13.9 µM (active) in series [1] and 16 µM (active) in [2]. With `C[C@H]1CN([C@@H](C)CO)C(=O)c2cc(NC(=O)Nc3ccc(C(F)(F)F)cc3)ccc2O[C@@H]1CN(C)Cc1ccc2c(c1)OCO2`, in series [3], the AC50 is 4.02 µM (active). Still for that read-out and setting: the same measure for `C[C@H]1CN([C@@H](C)CO)C(=O)c2cc(NC(=O)Cc3cn(C)c4ccccc34)ccc2O[C@H]1CN(C)Cc1ccc(Oc2ccccc2)cc1`: 6.34 µM (active).

Take `CC(C)(C)C(=O)NNC(=O)CCCOc1ccc(Cl)cc1Cl`: the AC50 was 25.1 µM (inconclusive) at Cytochrome P450 1A2 and “inconclusive” on Cytochrome P450 2C9.

Take `C[C@@H]1CN([C@@H](C)CO)C(=O)c2cc(NS(=O)(=O)c3ccc(F)cc3)ccc2O[C@H]1CN(C)Cc1ccc(C(=O)Nc2ccccc2N)cc1`: in [3], the half-maximal activity concentration (AC50) was 3.6 µM (active).

In the case of `C[C@@H]1CN([C@H](C)CO)C(=O)Cc2cc(NS(=O)(=O)c3ccc(F)cc3)ccc2O[C@@H]1CN(C)S(=O)(=O)c1ccccc1`, in [3], the AC50 was 5.74 µM (active). Still for that read-out and setting: the same measure for `C[C@@H]1CN([C@H](C)CO)C(=O)Cc2cc(NC(=O)Nc3ccc(C(F)(F)F)cc3)ccc2O[C@@H]1CN(C)Cc1ccc(Oc2ccccc2)cc1`: 3.3 µM (active); for `C[C@@H]1CN([C@@H](C)CO)C(=O)Cc2cc(NC(=O)Nc3ccc(C(F)(F)F)cc3)ccc2O[C@@H]1CN(C)C(=O)Nc1ccc(C(F)(F)F)cc1`: 3.66 µM (active). As to `CCN(CC)CCN1C(=O)C(O)=C(C(=O)c2ccc(OC)cc2)C1c1cccs1` (stereo not drawn), the AC50 is 17.8 µM (inconclusive) at Cytochrome P450 3A4 and “inconclusive” at Cytochrome P450 2C9. With `COc1cccc(C2=CC(c3cc(OC)ccc3OC)n3nnnc3N2)c1` (stereo not drawn), the cytotoxic concentration (CC50) in the series with Vero was 14.4 µM (active). Turning to `CCN(CC)CCNC(=O)c1ccc(NC(=O)C2CC(=O)N(c3ccc4c(c3)OCCO4)C2)cc1` (stereo not drawn), the results for the IC50 in [1] and in series [2] were 7.53 µM (active) and 8.16 µM (active), respectively. For the compound `O=C(O)CCCC[C@H]1CCSS1`, the AC50 entry at Cytochrome P450 2C9 is on record as “inconclusive”. `C[C@@H]1CN([C@H](C)CO)C(=O)c2cc(NS(=O)(=O)c3ccc(F)cc3)ccc2O[C@H]1CN(C)Cc1ccc(-c2ccccc2)cc1`: the AC50 in series [3] was 5.77 µM (active). Regarding `Cc1c(C(=O)Nc2ccc(OCc3ccccc3)cc2)cccc1[N+](=O)[O-]`, the AC50 result on Cytochrome P450 2C9 is given as “inconclusive”.
